Experimental data reported in patent publication US6914049B2, “IGF-binding protein-derived peptide or small molecule” (Bioexpertise, LLC, priority 2001, dated 2005).

Legend:
HEK293 cells [1] = experiment: Caspase-3 apoptosis assay on nutritionally stressed HEK293 cells (Examples 1-2); type: cell-based, human; conditions: FIG. 4A/4B
Description: Human embryonal kidney 293 (HEK293) cells were grown in Dulbecco's Modified Eagle Medium (D-MEM) supplemented with fetal calf serum at 2%, 4%, 6%, or 8%. When the cells reached 80-85% confluency (cell titer approximately 2.1×10^6 cells per plate), 5 μg of IGFBP-3 or buffer control was added to each plate. The cells were incubated at 37° C. overnight. The next day the medium was removed and the cells were rinsed with trypsin-EDTA (0.25% trypsin, 1 mM EDTA) plus 1× phosphate buffered saline. The cells were centrifuged and the supernatant was removed. ApoAlert caspase-3 assay kit from Clontech Inc (Palo Alto, Calif.) was used to measure apoptosis. The cells were resuspended in 50 μl of chilled cell lysis buffer and incubated on ice for 10 minutes. The resulting cell, lysates were centrifuged at 14000 rpm in a Beckman microcentrifuge for 3 minutes at 4 C. The supernatant was transferred to new tubes and 50 μl of 2× reaction buffer/DTT plus 5 μl of 1 mM caspase-3 substrate was added to each tube. After incubating at 37 C. for 1 hour in a water bath, the samples were read at 405 nm in a microplate reader.
Peptides derived from IGFBP-3 were tested for pro-apoptotic activity essentially as described in Example 1.
The peptides tested are described in Table 1 (peptides marked with an asterisk include a hexahistidine tag).

[2] = IMAC of IGFBP-3 on Ni++ and Zn++ resins; type: binding
Description: Panels a and b (FIGS. 5A and 5B) show SDS-PAGE analysis of samples from Ni^++ and Zn^++ IMAC, respectively. FT indicates column flowthrough; W indicates wash; 50 indicates 50 mM imidazole wash; 60 indicates 60 mM imidazole wash; E indicates 1 M imidazole elution buffer; S indicates 1 M EDTA stripping buffer.
This previously unknown property of IGFBP-3 is intriguing and has a number of practical implications among which the ability to capture products using immobilized metal affinity (IMAC) resins leads to a number of potential applications in therapeutic, high-throughput discovery, and other research arenas.

[3] = Binding of IGFBP-3 to IMAC (NTA) resin charged with metal; conditions: approx. 1 mg loaded
Description: (§1) Binding of IGFBP-3 to immobilized metal affinity chromatography (IMAC) resin charged with various metals was measured. Approximately 1 mg of IGFBP-3 was loaded onto each column (NTA resin, Sigma Chemical Co., St. Louis, Mo.). The “percentage bound” was calculated by measuring OD280 of load, flow-through, wash and eluate at 60 mM imidazole. Typical recoveries were 85-95%.

[4] = Binding of IGFBP-3 to IMAC (NTA) resin without metal; conditions: metal none; approx. 1 mg loaded
Description: as §1

HEK293 cells [5] = experiment: Co-apoptotic activity of IGFBP-3 and paclitaxel, caspase-3; type: cell-based, human; conditions: 200 ng/ml antibody, 30 minutes pretreatment; FIG. 8B
Description: Co-aptotic activity of IGFBP-3 in combination with paclitaxel was measured in the HEK293 assay described in Example 1. HEK293 cells were grown in DMEM plus 8% FCS, then incubated in 0.3 ng/ml of paclitaxel (TAXOL®), 50 ng/ml of IGFBP-3, or a combination of the two. Some cultures were pretreated for 30 minutes with 200 ng/ml of anti-beta-1-integrin antibody (Pharmingen). Caspase-3 was assayed using the ApoAlert caspase-3 kit from Clontech Inc.

MDA-MB-231 cells = experiment: Co-apoptotic activity of IGFBP-3 with cisplatin; type: cell-based; conditions: MDA-MB-231 cells and cisplatin; FIG. 8C
HEK 293 cells [6] = experiment: Co-apoptotic activity of MBD peptides and paclitaxel, caspase-3; type: cell-based, human; conditions: normalized to MBD2 = 100 on a molar basis; peptide 50 ng/ml, 0.3 ng/ml paclitaxel, 8 hours
Description: Peptides (50 ng/ml) were added to 80% confluent HEK 293 cells grown in DMEM supplemented with 0.3 ng/ml paclitaxel concurrent with peptide. Caspase-3 activity was measured in cell extracts 8 hours post-addition.
(§2) Apoptotic activity is expressed in arbitrary caspase-3 units normalized to MBD2 on a molar basis (MBD2 activity was defined as 100 units (avg. of 3 experiments); “nd” indicates “not done”; “ps” indicates phosphoserine. Metal-binding is expressed as a percentage of loaded peptide bound to a Ni-NTA resin; approximately 1-1.5 mg of peptide were loaded on the column. Cell uptake was determined using genetic fusions to GFP as described in Example 9.

[7] = Metal-binding of peptides to Ni-NTA resin; conditions: percentage of loaded peptide bound to Ni-NTA resin; 1-1.5 mg loaded
Description: as §2

HEK293 cells [8] = experiment: Co-apoptotic activity with paclitaxel in presence of plasma proteins; type: cell-based, human; conditions: 50 ng/ml, 0.3 ng/ml paclitaxel, eight hours
Description: Co-apoptotic activity of MBD peptides or IGFBP-3 with paclitaxel was tested in the presence or absence of two plasma proteins; fibronectin and fibrinogen. MBD peptides or IGFBP-3, (50 ng/ml), 0.3 ng/ml paclitaxel, and plasma proteins (200 ng/ml) were added to 80% confluent HEK293 cells grown in DMEM essentially as described in Example 8. Caspase-3 was measured after an eight hour incubation.
Apoptotic activity was calculated in arbitrary caspase-3 units normalized to MBD2 (MBD2 activity was defined as 100 units) Results are summarized in Table 4 (average of 3 experiments).

[9] = test system: MA-16C mammary adenocarcinoma tumors; experiment: MA-16C mammary adenocarcinoma tumor implants; type: in vivo, female C3H mice; conditions: for Lung Metastases: animals with metastases/animals
Description: Fragments of MA-16C mammary adenocarcinoma tumors were implanted subcutaneously into female C3H mice (8-11 animals per group). The animals were treated with vehicle alone, IGFBP-3 (4 mg/kg/day for 21 days by subcutaneous injection), doxorubicin (2 mg/kg on days 1 and 8 by intravenous injection), or IGFBP-3 plus doxorubicin. A separate study was performed where the animals were treated with vehicle alone, 5-fluorouracil (10 mg/kg on days 1-5 by intraperitoneal injection), or IGFBP-3 plus 5-fluorouracil. Tumor size was measured at day 18, and the mice were sacrificed at day 21, and the implanted tumors were removed for determination of caspase-3 activity (a marker of apoptosis-only performed for DOX groups).

HEK 293 cells [10] = experiment: IGF-independence of apoptosis stimulation, caspase-3; type: cell-based, human
Description: HEK 293 cells were cultured under stressed conditions (low serum or in the presence of paclitaxel) with and without IGFBP-3 (50 ng/ml) or MBD2 (50 ng/ml). Apoptosis was assayed using the caspase-3 assay as described in Example 1.

[11] = test system: bax-alpha expression in HEK 293 cells; experiment: Bax-alpha and bcl-2 mRNA expression; type: cell-based, human; conditions: paclitaxel 0.3 ng/ml, 50 ng/ml; FIG. 14A
Description: HEK 293 cells were cultured as described in Example 1, with the addition paclitaxel (0.3 ng/ml) and either IGFBP-3 or MBD2 at 50 ng/ml. Bax-alpha and bcl-2 mRNA and caspase 3 activity were assayed.

[12] = Solubility / concentration in phosphate buffered saline; type: physicochemical; conditions: PBS
Source text: Formulation: The central domain of IGFBP-3 is exquisitely sensitive to proteolysis. Due to the limited, solubility of IGFBP-3, its low stability and pronounced tendency to aggregate, the development of suitable formulations and convenient routes of delivery for intact IGFBP-3 is challenging.

binding to IMAC resins ([2]; Ni^++ and Zn^++ IMAC, SDS-PAGE): bound both IMAC resins effectively | % IGFBP-3 bound ([3]; Ca^++): 0.0% | % IGFBP-3 bound ([3]; Co^++): 95.1% | % IGFBP-3 bound ([3]; Fe^2+): 46.6% | % IGFBP-3 bound ([3]; Fe^3+): 55.1% | % IGFBP-3 bound ([3]; Mg^++): 38.8% | % IGFBP-3 bound ([3]; Mn^++): 20.1% | % IGFBP-3 bound ([3]; Ni^++): 97.6% | % IGFBP-3 bound ([3]; Zn^++): 59.5% | % IGFBP-3 bound [4]: 0.0% | Metal-binding [7]: 93 percentage
Substance: IGFBP-3: full-length, 264 aa, IGFBP-3 (insulin-like growth factor binding protein-3)
pro-apoptotic activity (HEK293 cells [1]): has pro-apoptotic activity | imidazole concentration that elutes from the resin ([2]; immobilized nickel and zinc): 60 mM | co-apoptotic activity after anti-beta-1-integrin antibody pretreatment (HEK293 cells [5]): greatly inhibits the co-apoptotic activity | co-apoptotic activity (MDA-MB-231 cells): failed to demonstrate any co-apoptotic activity | Apoptotic Activity (HEK 293 cells [6]): 585 arbitrary caspase-3 units | co-apoptotic activity with Fibrinogen (HEK293 cells [8]; Fibrinogen 200 ng/ml): 1.1 arbitrary caspase-3 units | co-apoptotic activity with Fibronectin (HEK293 cells [8]; Fibronectin 200 ng/ml): 3.5 arbitrary caspase-3 units | co-apoptotic activity, plasma protein none (HEK293 cells [8]; no plasma protein): 100.0 arbitrary caspase-3 units | Tumor Weight ([9]; 5FU study, 5-fluorouracil 10 mg/kg ip days 1-5, IGFBP-3 4 mg/kg/day sc): 3147 + 952 mg | Lung Metastases ([9]; 5FU study): 1/7 | Tumor Weight ([9]; DOX study, IGFBP-3 4 mg/kg/day sc 21 days, doxorubicin 2 mg/kg iv days 1 and 8): 2632 + 554 mg | Lung Metastases ([9]; DOX study): 1/7 | Caspase-3 ([9]; DOX study, tumors removed at day 21): 3.79 ± 3.25 | IGF dependence of pro-apoptotic activity (HEK 293 cells [10]; 0.3 ng/ml paclitaxel, alone or with Y60L-IGF-I, FIG. 11C): independent of the presence of IGF | pro-apoptotic activity under stressed conditions (HEK 293 cells [10]; low serum or paclitaxel, 50 ng/ml, FIGS. 11A, 11B): nearly identical | bax-alpha expression [11]: stimulates bax-alpha expression | maximum solubility in phosphate buffered saline [12]: 7000 µg/mL
